What was measured:
[1] = tested on: GRwt LBD-ligand complex / TIF2 peptide; experiment: SPR: binding of GRwt-ligand complexes to immobilized TIF2 peptide; set-up: species or system human; details: stated for both TIF2 and PRGC1
[2] = tested on: GRF602S-ligand-TIF2 complex; experiment: CPMG relaxation dispersion NMR, GRF602S-ligand-TIF2; set-up: species or system human; details: GRF602S-dex-TIF2; 13C CPMG, 14.1 and 18.8 T, 298 K
[3] = tested on: GRwt-ligand-PRGC1 complex; experiment: CPMG relaxation dispersion NMR, GRwt-ligand-PRGC1; set-up: species or system human; details: GRwt-dex-PRGC1; 13C CPMG, 18.8 T, 298 K
[4] = tested on: GRwt-ligand-TIF2 complex; experiment: CPMG relaxation dispersion NMR, GRwt-ligand-TIF2; set-up: species or system human; details: M752 13C CPMG, semiquantitative interpretation, 298 K
[5] = molecular target: T1, human GR (Homo sapiens, UniProt P04150); experiment: GR reporter gene assay; type: cell-based; details: transactivation reporter gene assay, comparison among steroid ligands
T1 sequence (P04150 1-777): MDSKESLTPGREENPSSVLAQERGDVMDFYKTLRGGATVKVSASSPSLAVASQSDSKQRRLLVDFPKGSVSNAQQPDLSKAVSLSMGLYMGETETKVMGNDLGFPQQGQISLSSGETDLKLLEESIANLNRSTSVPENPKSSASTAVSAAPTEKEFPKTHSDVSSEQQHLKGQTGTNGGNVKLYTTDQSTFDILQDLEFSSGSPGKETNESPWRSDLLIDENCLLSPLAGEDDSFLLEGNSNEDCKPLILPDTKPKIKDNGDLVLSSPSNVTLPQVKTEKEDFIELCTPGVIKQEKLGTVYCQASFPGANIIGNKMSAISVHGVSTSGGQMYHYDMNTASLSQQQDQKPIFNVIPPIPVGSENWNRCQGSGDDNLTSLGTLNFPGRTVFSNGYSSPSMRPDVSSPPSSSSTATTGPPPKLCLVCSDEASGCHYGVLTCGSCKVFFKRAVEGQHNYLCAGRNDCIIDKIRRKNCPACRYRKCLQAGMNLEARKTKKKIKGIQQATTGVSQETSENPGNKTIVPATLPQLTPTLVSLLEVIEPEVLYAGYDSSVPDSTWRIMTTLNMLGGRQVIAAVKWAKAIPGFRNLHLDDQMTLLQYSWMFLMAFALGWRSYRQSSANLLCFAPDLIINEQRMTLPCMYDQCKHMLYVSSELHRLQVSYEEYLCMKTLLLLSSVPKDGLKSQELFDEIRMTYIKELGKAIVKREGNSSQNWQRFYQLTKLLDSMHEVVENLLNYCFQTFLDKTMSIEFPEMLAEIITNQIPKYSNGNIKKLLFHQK

[6] = molecular target: GRwt LBD-ligand complex / PRGC1 peptide (Homo sapiens, UniProt P04150); experiment: SPR: binding of GRwt-ligand complexes to immobilized PRGC1 peptide; details: both GR constructs (GRwt and GRF602S), irrespective of ligand

C[C@]12CCC(=O)C=C1CC[C@@H]1[C@@H]2[C@@H](O)C[C@@]2(C)[C@H]1CC[C@]2(O)C(=O)CO [cortisol]
coregulator-binding affinity rank of GRwt-ligand complex in words [1]: weakest affinity in both cases

C[C@@H]1C[C@H]2[C@@H]3CCC4=CC(=O)C=C[C@]4(C)[C@@]3(F)[C@@H](O)C[C@]2(C)[C@@]1(O)C(=O)CO [dex, dexamethasone]
M565 relaxation dispersion in words [2]: shows relaxation dispersion in the GRF602S-dex-TIF2 complex, albeit of much lower amplitude
M752 relaxation dispersion in words [2]: marked relaxation dispersion profile
M565 relaxation dispersion in words [3]: does not show any dispersion

C[C@]12C=CC(=O)C=C1CC[C@@H]1[C@@H]2[C@@H](O)C[C@@]2(C)[C@H]1C[C@H]1O[C@@H](C3CCCCC3)O[C@]12C(=O)CO [dibC, desisobutyryl-ciclesonide]
population ratio of helix 12 conformations, pm/pM [4]: 0.1
coregulator-binding affinity rank of GRwt-ligand complex in words [1]: highest affinity for coregulator peptides
Agonist potency/efficacy in words [5]: partial agonist, dibC binds GR with high potency

PPQEAEEPSLLKKLLLAPANT [PRGC1]
affinity of GR constructs for coregulator in words [6]: higher affinity for PRGC1 than for TIF2
